{
  "source": "paper PMC4150021",
  "about": "(Nature, 2014)",
  "system": "PANC1 cells",
  "assay": "Colony formation / growth, PANC1",
  "type": "cell-based, human",
  "details": "data not shown",
  "data": [
    {"smiles": "Nc1ncnc2nc(-c3ccc(N4CCOCC4)nc3)cc(-c3cccc(Br)c3)c12", "note": "[ABT-702]", "values": [
      {"measurement": "growth impairment of PANC1 cells", "value": "did not observe any growth impairment"}
    ]}
  ]
}
